ChEMBL document CHEMBL6120945, “Peptidomimetic Analogues Act as Effective Inhibitors against SARS-CoV-2 by Blocking the Function of Cathepsin L” (J Med Chem, 2024)
Where a SMILES comes first, the peptide text is derived from it. [ ]: non-standard residue; d: D form. The star is where a group is joined. ξ: configuration not given here. Hydrocinnamoyl = O=C(CCc1ccccc1)*; Nicotinoyl = O=C(c1cccnc1)*; ξF = NC(Cc1ccccc1)C(=O)O; Cbz = O=C(OCc1ccccc1)*; Hexanoyl = CCCCCC(=O)*; PhAc = O=C(Cc1ccccc1)*; Boc = CC(C)(C)OC(=O)*; Butyryl = CCCC(=O)*; Bz = O=C(c1ccccc1)*

Tests used:
[1] = molecular target: Replicase polyprotein 1ab (Severe acute respiratory syndrome coronavirus 2, UniProt P0DTD1); assay: Inhibition of recombinant SARS-CoV-2 3CLpro using MCA-AVLQSGFR-Lys(Dnp)-Lys-NH2 as substrate incubated for 1.5 hrs by fluorescence based analysis
[2] = Inhibition of human recombinant Cathepsin L-like protease using Z-FR-AMC as substrate preincubated for 30 mins followed by substrate addition and measured after 1.5 hrs by fluorescence based analysis

Row | Structure (SMILES) | IC50 [1] [nM] | IC50 [2] [nM]
1 | CC(C)C[C@H](NC(=O)c1ccncc1)C(=O)N[C@H](C=O)Cc1ccccc1 | > 10000 | 8.46
2 | CC(C)C[C@H](NC(=O)/C=C/c1ccccc1)C(=O)N[C@@H](C=O)Cc1ccccc1 | > 10000 | > 1000
3 | CC(C)C[C@H](NC(=O)/C=C/c1ccccc1)C(=O)N[C@H](C=O)Cc1ccc([N+](=O)[O-])cc1 | > 10000 | 345
4 | CC(C)C[C@H](NC(=O)c1cccc(F)c1)C(=O)N[C@H](C=O)Cc1ccccc1 | > 10000 | 7.5
5 | O=C[C@H](Cc1ccccc1)NC(=O)[C@H](Cc1ccc(Cl)cc1)NC(=O)/C=C/c1ccccc1 | > 10000 | 8.91
6 | O=C[C@H](Cc1ccccc1)NC(=O)[C@H](Cc1ccc(Br)cc1)NC(=O)/C=C/c1ccccc1 | > 10000 | 11.6
7 | CC(C)C[C@H](NC(=O)/C=C/c1ccc(Br)cc1)C(=O)N[C@H](C=O)Cc1ccccc1 | > 10000 | 38.4
8 | CC(C)C[C@H](NC(=O)c1ccsc1)C(=O)N[C@H](C=O)Cc1ccccc1 | > 10000 | 8.15
9 | CCCC[C@H](NC(=O)/C=C/c1ccccc1)C(=O)N[C@H](C=O)Cc1ccccc1 | > 10000 | 157
10 | CC(C)C[C@H](NC(=O)c1cc2ccccc2[nH]1)C(=O)N[C@H](C=O)Cc1ccccc1 | > 10000 | 10.1
11 | CC(C)C[C@H](NC(=O)/C=C/c1ccccc1Cl)C(=O)N[C@H](C=O)Cc1ccccc1 | > 10000 | 9.57
12 | CC(C)C[C@H](NC(=O)/C=C/c1ccccc1)C(=O)N[C@H](C=O)Cc1ccc(C(F)(F)F)cc1 | > 10000 | 253
13 | CC(C)C[C@H](NC(=O)/C=C/c1cccc(Cl)c1)C(=O)N[C@H](C=O)Cc1ccccc1 | > 10000 | 27.1
14 | COc1ccc(C[C@@H](C=O)NC(=O)[C@H](CC(C)C)NC(=O)/C=C/c2ccccc2)cc1 | > 10000 | 131
15 | COc1ccc(C(=O)N[C@@H](CC(C)C)C(=O)N[C@H](C=O)Cc2ccccc2)cc1 | > 10000 | 6.06
16 | CC(C)C[C@H](NC(=O)/C=C/c1ccc(Cl)cc1)C(=O)N[C@H](C=O)Cc1ccccc1 | > 10000 | 23.5
17 | CC(C)C[C@H](NC(=O)c1ccccc1)C(=O)N[C@H](C=O)Cc1ccccc1 (Bz-Leu-Phe-aldehyde) | > 10000 | 7.56
18 | CC(C)C[C@H](NC(=O)c1ccc2ccccc2c1)C(=O)N[C@H](C=O)Cc1ccccc1 | > 10000 | 2.83
19 | CC(C)C[C@H](NC(=O)/C=C/c1ccccc1)C(=O)N[C@H](C=O)Cc1ccccc1F | > 10000 | 23.4
20 | COC(=O)/C=C/[C@H](Cc1ccccc1)NC(=O)[C@H](CC(C)C)NC(=O)/C=C/c1ccccc1 | > 10000 | > 1000
21 | CC(C)C[C@H](NC(=O)/C=C/c1ccc(F)cc1)C(=O)N[C@H](C=O)Cc1ccccc1 | > 10000 | 20.1
22 | CCC[C@H](NC(=O)/C=C/c1ccccc1)C(=O)N[C@H](C=O)Cc1ccccc1 | > 10000 | 125
23 | CC(C)C[C@H](NC(=O)c1cc[nH]c1)C(=O)N[C@H](C=O)Cc1ccccc1 | > 10000 | 37.3
24 | CC(C)C[C@H](NC(=O)OCc1ccccc1)C(=O)N[C@H](C=O)Cc1ccccc1 (Cbz-Leu-Phe-aldehyde) | > 10000 | 9.88

Row | Structure (SMILES) | IC50 [1] [nM] | IC50 [2] [nM]
25 | O=C[C@H](Cc1ccccc1)NC(=O)[C@H](Cc1ccccc1)NC(=O)/C=C/c1ccccc1 | > 10000 | 6.65
26 | COc1ccc(/C=C/C(=O)N[C@@H](CC(C)C)C(=O)N[C@H](C=O)Cc2ccccc2)cc1 | > 10000 | 55.4
27 | O=C[C@H](Cc1ccccc1)NC(=O)[C@H](Cc1cccc(F)c1)NC(=O)/C=C/c1ccccc1 | > 10000 | 6.56
28 | O=C[C@H](Cc1ccccc1)NC(=O)[C@H](Cc1ccccc1F)NC(=O)/C=C/c1ccccc1 | > 10000 | 6.82
29 | CCCC(=O)N[C@@H](CC(C)C)C(=O)N[C@H](C=O)Cc1ccccc1 (Butyryl-Leu-Phe-aldehyde) | > 10000 | 72.7
30 | CC(C)C[C@H](NC(=O)/C=C/c1ccccc1)C(=O)N[C@H](C=O)Cc1ccccc1Br | > 10000 | 180
31 | CC(C)[C@H](NC(=O)OCc1ccccc1)C(=O)NC(C=O)Cc1ccccc1 (stereo partly drawn) (Cbz-Val-[ξF]-aldehyde) | – | 19900
32 | CC(C)C[C@H](NC(=O)c1cccc2ccccc12)C(=O)N[C@H](C=O)Cc1ccccc1 | > 10000 | 1.26
33 | CC(C)C[C@H](NC(=O)CCc1ccccc1)C(=O)N[C@H](C=O)Cc1ccccc1 (Hydrocinnamoyl-Leu-Phe-aldehyde) | > 10000 | 18.2
34 | O=C[C@H](Cc1ccccc1)NC(=O)[C@H](CC1CCCCC1)NC(=O)/C=C/c1ccccc1 | > 10000 | 53
35 | CC(C)C[C@H](NC(=O)c1ccccn1)C(=O)N[C@H](C=O)Cc1ccccc1 | > 10000 | 26.4
36 | CC(C)C[C@H](NC(=O)c1ccc[nH]1)C(=O)N[C@H](C=O)Cc1ccccc1 | > 10000 | 37.7
37 | CC(C)C[C@H](NC(=O)C1CCCCC1)C(=O)N[C@H](C=O)Cc1ccccc1 | > 10000 | 6.06
38 | CC(C)C[C@H](NC(=O)c1ccc2[nH]ccc2c1)C(=O)N[C@H](C=O)Cc1ccccc1 | > 10000 | 2.05
39 | CC[C@H](C)[C@H](NC(=O)/C=C/c1ccccc1)C(=O)N[C@H](C=O)Cc1ccccc1 | > 10000 | 170
40 | CC(C)C[C@H](NC(=O)C1CCC(F)(F)CC1)C(=O)N[C@H](C=O)Cc1ccccc1 | > 10000 | 6.29
41 | CC(C)(C)[C@H](NC(=O)/C=C/c1ccccc1)C(=O)N[C@H](C=O)Cc1ccccc1 | > 10000 | 182
42 | CC(C)C[C@H](NC(=O)C1CCOCC1)C(=O)N[C@H](C=O)Cc1ccccc1 | > 10000 | 20.2
43 | C=CC(=O)[C@H](Cc1ccccc1)NC(=O)[C@H](CC(C)C)NC(=O)/C=C/c1ccccc1 | > 10000 | > 1000
44 | CC(C)C[C@H](NC(=O)c1ccc(F)cc1)C(=O)N[C@H](C=O)Cc1ccccc1 | > 10000 | 9.85
45 | CC(C)C[C@H](NC(=O)c1ccccc1F)C(=O)N[C@H](C=O)Cc1ccccc1 | > 10000 | 9.66
46 | O=C[C@H](Cc1ccccc1)NC(=O)[C@H](Cc1ccc(F)cc1)NC(=O)/C=C/c1ccccc1 | > 10000 | 6.68
47 | CC(C)C[C@H](NC(=O)/C=C/c1ccccc1F)C(=O)N[C@H](C=O)Cc1ccccc1 | > 10000 | 16.5
48 | C[C@H](NC(=O)/C=C/c1ccccc1)C(=O)N[C@H](C=O)Cc1ccccc1 | > 10000 | 42.1

Row | Structure (SMILES) | IC50 [1] [nM] | IC50 [2] [nM]
49 | CC(C)C[C@H](NC(=O)/C=C/c1ccccc1)C(=O)N[C@H](C=O)C(C)C | > 10000 | 23.4
50 | CC(C)C[C@H](NC(=O)c1ccc([N+](=O)[O-])cc1)C(=O)N[C@H](C=O)Cc1ccccc1 | > 10000 | 8.19
51 | CC(C)C[C@H](NC(=O)/C=C/c1ccc(C(F)(F)F)cc1)C(=O)N[C@H](C=O)Cc1ccccc1 | > 10000 | 75.8
52 | CCCCCC(=O)N[C@@H](CC(C)C)C(=O)N[C@H](C=O)Cc1ccccc1 (Hexanoyl-Leu-Phe-aldehyde) | > 10000 | 34.6
53 | CC(C)C[C@H](NC(=O)/C=C/c1ccccc1)C(=O)N[C@H](C=O)Cc1cccc(F)c1 | > 10000 | 162
54 | CC(C)C[C@H](NC(=O)OC(C)(C)C)C(=O)N[C@H](C=O)Cc1ccccc1 (Boc-Leu-Phe-aldehyde) | > 10000 | 165
55 | CC(C)[C@H](NC(=O)/C=C/c1ccccc1)C(=O)N[C@H](C=O)Cc1ccccc1 | > 10000 | 22
56 | CC(C)C[C@H](NC(=O)/C=C/c1ccccc1)C(=O)N[C@H](C=O)Cc1ccc(F)cc1 | > 10000 | 74.1
57 | C=Cc1ccc(C(=O)N[C@@H](CC(C)C)C(=O)N[C@H](C=O)Cc2ccccc2)cc1 | > 10000 | 9.41
58 | CC(C)C[C@H](NC(=O)Cc1ccccc1)C(=O)N[C@H](C=O)Cc1ccccc1 (PhAc-Leu-Phe-aldehyde) | > 10000 | 7.82
59 | CC(C)C[C@H](NC(=O)c1ccc(Br)cc1)C(=O)N[C@H](C=O)Cc1ccccc1 | > 10000 | 9.59
60 | CC(C)C[C@H](NC(=O)c1ccc(Cl)cc1)C(=O)N[C@H](C=O)Cc1ccccc1 | > 10000 | 9.47
61 | CC(C)C[C@H](NC(=O)/C=C/c1ccccc1)C(=O)N[C@H](C=O)CCc1ccccc1 | > 10000 | 26
62 | CC(C)C[C@H](NC(=O)/C=C/c1cccc(F)c1)C(=O)N[C@H](C=O)Cc1ccccc1 | > 10000 | 46.2
63 | CC(C)C[C@H](NC(=O)c1ccco1)C(=O)N[C@H](C=O)Cc1ccccc1 | > 10000 | 17.4
64 | CC(C)C[C@H](NC(=O)/C=C/c1ccccc1)C(=O)N[C@H](C=O)Cc1ccccc1Cl | > 10000 | 58
65 | CC(C)C[C@H](NC(=O)c1ccoc1)C(=O)N[C@H](C=O)Cc1ccccc1 | > 10000 | 24.2
66 | CC(C)C[C@H](NC(=O)c1cccnc1)C(=O)N[C@H](C=O)Cc1ccccc1 (Nicotinoyl-Leu-Phe-aldehyde) | > 10000 | 14.4
67 | CC(C)C[C@H](NC(=O)/C=C/c1ccccc1)C(=O)N[C@H](C=O)CC1CCCCC1 | > 10000 | 47.8
68 | CC(C)C[C@H](NC(=O)Cc1c[nH]c2ccccc12)C(=O)N[C@H](C=O)Cc1ccccc1 | > 10000 | 3.18
69 | CSCC[C@@H](C=O)NC(=O)[C@H](CC(C)C)NC(=O)/C=C/c1ccccc1 | > 10000 | 29.4
70 | CC(C)C[C@H](NC(=O)c1ccc(-c2ccccc2)cc1)C(=O)N[C@H](C=O)Cc1ccccc1 | > 10000 | 20.9
71 | CC(C)C[C@H](NC(=O)/C=C/c1ccccc1)C(=O)N[C@@H](Cc1ccccc1)C(=O)CCl | > 10000 | 9.87
